# Measurements: patent US8329675B2, “Inhibitors of fatty acid amide hydrolase” (Infinity Pharmaceuticals, Inc., priority 2006, dated 2012)
# Molecular target: T1, human FAAH (Homo sapiens, UniProt O00519)
# T1 construct: host or cells: COS-7 cells, transient transfection; 13,000 g membrane fraction solubilised in 1% Triton X-100
# T1 sequence (O00519 1-579): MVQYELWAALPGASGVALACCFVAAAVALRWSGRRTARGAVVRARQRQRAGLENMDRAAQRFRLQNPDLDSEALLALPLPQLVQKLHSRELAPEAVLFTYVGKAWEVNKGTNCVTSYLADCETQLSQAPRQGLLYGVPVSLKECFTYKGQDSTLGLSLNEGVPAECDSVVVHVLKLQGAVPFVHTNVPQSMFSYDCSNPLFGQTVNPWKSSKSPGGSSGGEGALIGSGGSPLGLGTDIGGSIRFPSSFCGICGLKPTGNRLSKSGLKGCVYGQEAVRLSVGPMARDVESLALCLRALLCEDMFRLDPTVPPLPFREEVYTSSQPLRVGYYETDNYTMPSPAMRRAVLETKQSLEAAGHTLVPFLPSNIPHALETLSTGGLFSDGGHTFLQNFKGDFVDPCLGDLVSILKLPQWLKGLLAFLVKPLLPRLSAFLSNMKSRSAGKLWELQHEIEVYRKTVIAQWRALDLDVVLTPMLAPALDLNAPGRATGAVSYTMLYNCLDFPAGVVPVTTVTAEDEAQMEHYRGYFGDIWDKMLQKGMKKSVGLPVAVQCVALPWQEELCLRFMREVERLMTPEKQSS
# Assay: Human FAAH biochemical inhibition assay (AMC arachidonoyl amide fluorescence)
# Conditions: not given
# Protocol: The resulting solution is added into one dish of 30-40% confluent COS-7 cells in a drop-wise manner. The COS-7 cell dish is subsequently incubated for 48 hours. The cells are then harvested.
# Harvest procedure: Media was aspirated from the dishes and the cells rinsed with 10 mL PBS. The PBS was removed and 3 mLs of PBS added to the dish. The dish was scraped to resuspend the cells, and the subsequent cell suspension collected into a 15 ml conical tube. The cells were pelleted by centrifugation at 1200 rpm for 5 minutes in a bench top centrifuge. PBS was removed and the cell pellet snap frozen in liquid nitrogen, store at −80 C.
# The pellets were dounce homogenized and then sonicated to produce cell extract. The cell extract was subsequently centrifuged at 1000 g to remove cellular debris. The pellet was discarded and the supernatant centrifuged at 13,000 g for 20 minutes. The pellet contained membrane bound FAAH. The supernatant was discarded and the pellet resolubilized.
# (2) Re-solubilization: The fraction of interest, (13,000 g, membrane fraction) was re-suspended in re-suspension buffer (20 mM Hepes pH 7.8, 10% v/v Glycerol, 1 mM EDTA, 1% Triton X-100) (2.3 mL re-suspension and the sample incubated on ice for 1 hour and then centrifuged to at 13,000 g remove any particulate matter. The supernatant containing solubilized human FAAH was aliquoted and snap frozen in liquid nitrogen and stored at −80° C. until use.
# FAAH reaction buffer: 50 mM Hepes (pH 7.5), 1 mM EDTA, 0.2% Triton X-100.
# Human FAAH assay; Experimental Protocol: A 0.1 mg/mL Human FAAH solution is made up in FAAH reaction buffer, and 24 ul pipetted into a 384 well plate. To this is added 1 uL of a 3 fold serially diluted inhibitor from a DMSO stock solution. The FAAH solution and inhibitor are incubated for 30 minutes at room temperature. The FAAH reaction is initiated by the addition of 25 uL of 40 uM AMC Arachidonoyl Amide in FAAH reaction buffer, yielding a final reaction human FAAH preparation concentration of 0.05 mg/ml and AMC-Arachidonoyl substrate concentration of 20 uM, reaction volume 50 uL. The reaction is allowed to proceed for 4 hours at room temperature. […] The microtiter plate in read in the envision plate reader.
row,Structure (SMILES),Ki
1,NCCOB(c1ccccc1)c1ccccc1 [Compound I-125],> 1000 nM
2,OB(O)c1ccc(-c2ccccc2)cc1 [Compound I-187],10 to 100 nM

# Same assay, conditions: Table 1, human FAAH (no asterisk); read-out: Activity (Ki)
row,Structure (SMILES),Ki
1,OB(O)c1cccc2[nH]ccc12 [Compound I-100],> 1000 nM
2,OB(O)c1ccc2cc[nH]c2c1 [Compound I-101],> 1000 nM
3,Cn1ccc2ccc(B(O)O)cc21 [Compound I-102],> 1000 nM
4,OB(O)c1ccc2c(c1)CCO2 [Compound I-103],> 1000 nM
5,O=Cc1ccc(B(O)O)c2ccccc12 [Compound I-104],10 to 1000 nM
6,OB(O)c1ccccc1F [Compound I-105],10 to 1000 nM
7,OB(O)/C=C/c1ccccc1 [Compound I-106],> 1000 nM
8,OB(O)c1ccc2nccn2c1 [Compound I-109],> 1000 nM
9,Cc1ccc(B(O)O)c(F)c1 [Compound I-110],10 to 1000 nM
10,OB(O)c1cccc2cccnc12 [Compound I-112],> 1000 nM
11,OB(O)c1cccc2ncccc12 [Compound I-113],10 to 1000 nM
12,COc1ccc(CN(Cc2ccc(OC)cc2)S(=O)(=O)c2ccc(B(O)O)cc2)cc1 [Compound I-117],> 1000 nM
13,O=S(=O)(NCC1CCCCC1)c1ccc(B(O)O)cc1 [Compound I-119],10 to 1000 nM
14,COc1ccc(CNS(=O)(=O)c2ccc(B(O)O)cc2)cc1 [Compound I-120],10 to 100 nM
15,Cc1nnc(-c2ccc(B(O)O)cc2)o1 [Compound I-121],10 to 100 nM
16,COc1ccc(CNC(=O)Nc2ccc(B3OC(C)(C)C(C)(C)O3)cc2)cc1 [Compound I-122],10 to 1000 nM
17,OB(O)c1ccc(OCCn2cccn2)cc1 [Compound I-124],10 to 100 nM
18,CC1(C)OB(c2ccc(/C=C\c3ccccc3)cc2)OC1(C)C [Compound I-126],> 1000 nM
19,OB(O)c1ccc2[nH]ccc2c1 [Compound I-128],> 1000 nM
20,CC(C)(C)OC(=O)n1c(B(O)O)cc2ccccc21 [Compound I-133],> 1000 nM
21,OB(O)c1ccc(-c2cccs2)s1 [Compound I-135],10 to 1000 nM
22,O=Cc1ccc(-c2ccccc2)c(F)c1 [Compound I-136],> 1000 nM

row,Structure (SMILES),Ki
1,CCCCOc1ccc(B(O)O)c(C)c1 [Compound I-138],10 to 1000 nM
2,OB(O)c1ccc(N2CCOCC2)cc1 [Compound I-139],10 to 1000 nM
3,OB(O)c1ccc(OCc2cccc(Br)c2)c(Cl)c1 [Compound I-147],< 10 nM
4,Cc1cc(B(O)O)cc(C)c1OCc1cccc(Cl)c1 [Compound I-148],< 10 nM
5,OB(O)c1ccc(OCc2cccc(Cl)c2)c(Cl)c1 [Compound I-154],< 10 nM
6,OB(O)c1ccc(OC2CCCCO2)cc1 (centres unmarked) [Compound I-158],10 to 100 nM
7,OB(O)c1ccc2c(c1)Oc1ccccc1S2 [Compound I-159],> 1000 nM
8,OB(O)c1cc2ccccc2nc1Cl [Compound I-160],> 1000 nM
9,CCCCCc1ccc(B(O)O)cc1 [Compound I-161],< 10 nM
10,OB(O)c1ccc(C2CCCCC2)cc1 [Compound I-162],< 10 nM
11,OB(O)c1ccc2cc(O)ccc2c1 [Compound I-168],10 to 100 nM
12,O=C(c1ccc(B(O)O)cc1)N1CCOCC1 [Compound I-171],10 to 1000 nM
13,OB(O)c1cc2ccccc2o1 [Compound I-176],> 1000 nM
14,OB(O)c1ccc2c3c(cccc13)CC2 [Compound I-181],10 to 1000 nM
15,OB(O)c1cc2ccccc2c2ccccc12 [Compound I-183],> 1000 nM
16,COc1ccc2cc(B(O)O)ccc2c1 [Compound I-184],10 to 100 nM
17,OB(O)c1ccc(-c2ccccc2)cc1F [Compound I-185],< 10 nM
18,OB(O)c1ccc(-c2ccccc2)s1 [Compound I-196],10 to 100 nM
19,OB(O)c1csc2ccccc12 [Compound I-197],10 to 100 nM
20,OB(O)c1ccc(-c2ccc(B(O)O)cc2)cc1 [Compound I-198],10 to 100 nM
21,OB(O)c1ccc(OC(F)(F)F)cc1 [Compound I-204],10 to 100 nM

# The next lines start with the values.
row,Ki,Structure (SMILES)
1,> 1000 nM,OB(O)c1ccccc1 [Compound I-107]
2,10 to 1000 nM,OB(O)c1cccc2ccccc12 [Compound I-111]
3,> 1000 nM,CC(C)(C)OC(=O)n1c(B(O)O)cc2cc(OCc3ccccc3)ccc21 [Compound I-114]
4,> 1000 nM,CC(C)(C)OC(=O)n1c(B(O)O)cc2c(OCc3ccccc3)cccc21 [Compound I-115]
5,> 1000 nM,Cn1c(B(O)O)cc2c(OCc3ccccc3)cccc21 [Compound I-116]
6,10 to 1000 nM,COc1ccc(CN(Cc2ccccc2)S(=O)(=O)c2ccc(B(O)O)cc2)cc1 [Compound I-118]
7,< 10 nM,O=C(NCCc1ccccc1)c1ccc(B(O)O)cc1 [Compound I-123]
8,> 1000 nM,O=C(c1ccc(Oc2ccccc2)cc1)C(F)(F)F [Compound I-132]
9,10 to 100 nM,Cc1cc(OCc2ccccc2)ccc1B(O)O [Compound I-134]
10,10 to 100 nM,OB(O)c1cccc(OCc2ccccc2Cl)c1 [Compound I-140]
11,10 to 100 nM,OB(O)c1cccc(OCc2cccc(Cl)c2)c1 [Compound I-141]
12,> 1000 nM,OB(O)c1c(F)ccc(OCc2ccccc2)c1F [Compound I-143]
13,< 10 nM,OB(O)c1ccc(OCc2ccccc2)cc1F [Compound I-146]
14,< 10 nM,OB(O)c1ccc(OCc2ccc(F)cc2)c(Cl)c1 [Compound I-152]
15,10 to 100 nM,O=C(Nc1ccc(B(O)O)cc1)OCc1ccccc1 [Compound I-163]
16,< 10 nM,O=C(NCc1ccccc1)c1ccc(B(O)O)cc1 [Compound I-164]
17,> 1000 nM,O=C(Nc1ccccc1)c1cccc(B(O)O)c1 [Compound I-165]
18,10 to 100 nM,O=C(NCc1ccco1)c1ccc(B(O)O)cc1 [Compound I-167]
19,10 to 100 nM,O=C(Nc1ccccc1)c1ccc(B(O)O)cc1 [Compound I-169]
20,< 10 nM,O=C(OCc1ccccc1)c1ccc(B(O)O)cc1 [Compound I-173]
21,10 to 100 nM,OB(O)c1ccc2ccccc2c1 [Compound I-178]
22,> 1000 nM,OB(O)c1ccccc1OCc1ccccc1 [Compound I-182]
23,10 to 1000 nM,OB(O)c1cccc(-c2ccccc2)c1 [Compound I-186]
24,< 10 nM,OB(O)c1ccc(-c2ccccc2)c(F)c1 [Compound I-194]
25,< 10 nM,O=C(c1ccccc1)c1ccc(B(O)O)cc1 [Compound I-202]

# Same assay, conditions: Table 2, human FAAH (no asterisk); read-out: Activity (Ki)
row,Structure (SMILES),Ki
1,OB(O)c1ccc(OCc2cn(C3CCCC3)nn2)cc1F [II-1],10 to 100 nM
2,OB(O)c1ccc(-c2ccc(F)c(F)c2)cc1F [II-2],< 10 nM
3,Cc1ccc(-c2ccc(B(O)O)c(F)c2)cc1F [II-3],< 10 nM
4,CN(C)c1cccc(-c2ccc(B(O)O)c(F)c2)c1 [II-4],< 10 nM
5,O=C1C[N+]2(Cc3ccccc3)CC(=O)O[B-]2(c2ccc(-c3cccc(F)c3)cc2F)O1 (centres unmarked) [II-5],< 10 nM
6,OB(O)c1ccc(OCCc2ccccn2)cc1F [II-6],< 10 nM
7,OB(O)c1ccc(-c2nnc(-c3ccco3)o2)cc1 [II-7],< 10 nM
8,OB(O)c1ccc(-c2ccc(-c3ccccc3)c(F)c2)cc1F [II-10],< 10 nM
9,OB(O)c1ccc(-c2cccc(F)c2)cc1F [II-11],< 10 nM
10,OB(O)c1ccc(Oc2cccc(F)c2)cc1F [II-12],< 10 nM
11,OB(O)c1ccc(-c2cccnc2)cc1F [II-13],10 to 100 nM
12,OB(O)c1ccc(-c2cccc3ccccc23)cc1F [II-16],10 to 100 nM

# Second part, the compound after the results:
row,Ki,Structure (SMILES)
1,< 10 nM,OB(O)c1ccc(OCCc2ccccc2)cc1F [II-8]
2,< 10 nM,O=C(CCc1ccccc1)c1ccc(B(O)O)cc1 [II-9]
3,10 to 100 nM,O=C1c2ccccc2C(=O)N1Cc1ccc(B(O)O)cc1 [II-14]
4,10 to 100 nM,O=C(c1ccccc1)c1cc2cc(B(O)O)ccc2o1 [II-15]
